Results published in patent publication US20180249707A1, “METHOD OF CONTROLLING ALGAE IN A BODY OF WATER” (priority 2013, published 2018).

Columns and labels:
[1] = system: Microcystis aeruginosa; assay: 14-day flask exposure of Microcystis aeruginosa to BADA; format: cell-based
Description: (§1) The experiment was conducted for 14 days and was initiated using 100 mL BG-11 medium contained in 200 mL flasks. […] The experiment was initiated by exposing the algae to 0.2, 0.4, 0.8, 1.0, 1.2, 1.4, 1.8, and 2.0 ppm (mg/L) as BADA, 0.5 Cu/L Cutrine®-Plus. The solution was heated in a water bath and diluted to 70 mg/L using warmed deionized water. Cutrine®-Plus stock solution was made at 50 mg/L using deionized water. Three replicates of each exposure concentration, along with three replicates of an untreated reference were tested. Each sample was maintained at room temperature with 12-hours of light and 12-h dark photoperiod. The chlorophyll a concentrations of Microcystis aeruginosa through the 14 day exposure after exposure to concentrations of BADA and Cutrine®-Plus. The results are shown in TABLES 5, and 6, which show the chlorophyll a concentration and the cell density, respectively.

[2] = system: Cladophora sp.; assay: 14-day flask exposure of Cladophora sp. to BADA; format: cell-based, C. kosterae
Description: The experiment was conducted for 14 days and was initiated using 100 mL BG-11 medium contained in 200 mL flasks. […] The solution was heated in a water bath and diluted to 70 mg/L using warmed deionized water. The concentration of DMSO was approximately 350 mg/L in the test beakers. Cutrine®-Plus stock solution was made at 50 mg/L using deionized water. Three replicates of each exposure concentration, along with three replicates of an untreated reference were tested. Each sample was maintained at room temperature with 12-hours of light and 12-h dark photoperiod. […]

[3] = system: M. aeruginosa; assay: Repeat exposure of M. aeruginosa to BADA at 25-200 ppb; format: cell-based
Description: as §1
Example 5 was repeated but using the N,N-bis-(3-aminopropyl) dodecylamine in the amounts of 200 parts per billion ((ppb) 0.2 ppm), 100 parts per billion ((ppb) 0.1 ppm), 75 parts per billion ((ppb) 0.075 ppm), 50 parts per billion ((ppb) 0.05 ppm), and 25 parts per billion ((ppb) 0.025 ppm). A control example was also repeated since the M. aeruginosa was from a different culture and the test were conducted at different times. The results are shown in TABLES 8, and 9, which show the chlorophyll a concentration and the cell density, respectively.

[4] = at concentrations comparable to Cutrine-Plus

## CCCCCCCCCCCCN(CCCN)CCCN [BADA, N,N-bis-(3-aminopropyl) dodecylamine]
[1]; 0.2 to 2.0 ppm (mg/L), by 15 days after start, p<0.01
  Chlorophyll a content of M. aeruginosa compared to untreated control algae: reduced
[1]; BADA 0.2 ppm, day 0 (initial)
  Cell density of M. aeruginosa cultures: 5.7E+05 cells/mL
  In vivo chlorophyll a concentrations of M. aeruginosa cultures: 0.90 µg/L
[1]; BADA 0.2 ppm, day 3
  In vivo chlorophyll a concentrations of M. aeruginosa cultures: 0.28 µg/L
[1]; BADA 0.2 ppm, day 7
  Cell density of M. aeruginosa cultures: <1E+04 cells/mL
  In vivo chlorophyll a concentrations of M. aeruginosa cultures: 0.06 µg/L
[1]; BADA 0.2 ppm, day 14
  Cell density of M. aeruginosa cultures: <1E+04 cells/mL
  In vivo chlorophyll a concentrations of M. aeruginosa cultures: 0.02 µg/L
[1]; BADA 0.4 ppm, day 0 (initial)
  Cell density of M. aeruginosa cultures: 5.7E+05 cells/mL
  In vivo chlorophyll a concentrations of M. aeruginosa cultures: 0.90 µg/L
[1]; BADA 0.4 ppm, day 3
  In vivo chlorophyll a concentrations of M. aeruginosa cultures: 0.23 µg/L
[1]; BADA 0.4 ppm, day 7
  Cell density of M. aeruginosa cultures: <1E+04 cells/mL
  In vivo chlorophyll a concentrations of M. aeruginosa cultures: 0.03 µg/L
[1]; BADA 0.4 ppm, day 14
  Cell density of M. aeruginosa cultures: <1E+04 cells/mL
  In vivo chlorophyll a concentrations of M. aeruginosa cultures: 0.02 µg/L
[1]; BADA 0.8 ppm, day 0 (initial)
  Cell density of M. aeruginosa cultures: 5.7E+05 cells/mL
  In vivo chlorophyll a concentrations of M. aeruginosa cultures: 0.90 µg/L
[1]; BADA 0.8 ppm, day 3
  In vivo chlorophyll a concentrations of M. aeruginosa cultures: 0.26 µg/L
[1]; BADA 0.8 ppm, day 7
  Cell density of M. aeruginosa cultures: <1E+04 cells/mL
  In vivo chlorophyll a concentrations of M. aeruginosa cultures: 0.03 µg/L
[1]; BADA 0.8 ppm, day 14
  Cell density of M. aeruginosa cultures: <1E+04 cells/mL
  In vivo chlorophyll a concentrations of M. aeruginosa cultures: 0.02 µg/L
[1]; BADA 1.0 ppm, day 0 (initial)
  Cell density of M. aeruginosa cultures: 5.7E+05 cells/mL
  In vivo chlorophyll a concentrations of M. aeruginosa cultures: 0.90 µg/L
[1]; BADA 1.0 ppm, day 3
  In vivo chlorophyll a concentrations of M. aeruginosa cultures: 0.31 µg/L
[1]; BADA 1.0 ppm, day 7
  Cell density of M. aeruginosa cultures: <1E+04 cells/mL
  In vivo chlorophyll a concentrations of M. aeruginosa cultures: 0.05 µg/L
[1]; BADA 1.0 ppm, day 14
  Cell density of M. aeruginosa cultures: <1E+04 cells/mL
  In vivo chlorophyll a concentrations of M. aeruginosa cultures: 0.02 µg/L
[1]; BADA 1.2 ppm, day 0 (initial)
  Cell density of M. aeruginosa cultures: 5.7E+05 cells/mL
  In vivo chlorophyll a concentrations of M. aeruginosa cultures: 0.90 µg/L
[1]; BADA 1.2 ppm, day 3
  In vivo chlorophyll a concentrations of M. aeruginosa cultures: 0.29 µg/L
[1]; BADA 1.2 ppm, day 7
  Cell density of M. aeruginosa cultures: <1E+04 cells/mL
  In vivo chlorophyll a concentrations of M. aeruginosa cultures: 0.04 µg/L
[1]; BADA 1.2 ppm, day 14
  Cell density of M. aeruginosa cultures: <1E+04 cells/mL
  In vivo chlorophyll a concentrations of M. aeruginosa cultures: 0.02 µg/L
[1]; BADA 1.4 ppm, day 0 (initial)
  Cell density of M. aeruginosa cultures: 5.7E+05 cells/mL
  In vivo chlorophyll a concentrations of M. aeruginosa cultures: 0.90 µg/L
[1]; BADA 1.4 ppm, day 3
  In vivo chlorophyll a concentrations of M. aeruginosa cultures: 0.29 µg/L
[1]; BADA 1.4 ppm, day 7
  Cell density of M. aeruginosa cultures: <1E+04 cells/mL
  In vivo chlorophyll a concentrations of M. aeruginosa cultures: 0.04 µg/L
[1]; BADA 1.4 ppm, day 14
  Cell density of M. aeruginosa cultures: <1E+04 cells/mL
  In vivo chlorophyll a concentrations of M. aeruginosa cultures: 0.01 µg/L
[1]; BADA 1.8 ppm, day 0 (initial)
  Cell density of M. aeruginosa cultures: 5.7E+05 cells/mL
  In vivo chlorophyll a concentrations of M. aeruginosa cultures: 0.90 µg/L
[1]; BADA 1.8 ppm, day 3
  In vivo chlorophyll a concentrations of M. aeruginosa cultures: 0.32 µg/L
[1]; BADA 1.8 ppm, day 7
  Cell density of M. aeruginosa cultures: <1E+04 cells/mL
  In vivo chlorophyll a concentrations of M. aeruginosa cultures: 0.03 µg/L
[1]; BADA 1.8 ppm, day 14
  Cell density of M. aeruginosa cultures: <1E+04 cells/mL
  In vivo chlorophyll a concentrations of M. aeruginosa cultures: 0.02 µg/L
[1]; BADA 2.0 ppm, day 0 (initial)
  Cell density of M. aeruginosa cultures: 5.7E+05 cells/mL
  In vivo chlorophyll a concentrations of M. aeruginosa cultures: 0.90 µg/L
[1]; BADA 2.0 ppm, day 3
  In vivo chlorophyll a concentrations of M. aeruginosa cultures: 0.40 µg/L
[1]; BADA 2.0 ppm, day 7
  Cell density of M. aeruginosa cultures: <1E+04 cells/mL
  In vivo chlorophyll a concentrations of M. aeruginosa cultures: 0.03 µg/L
[1]; BADA 2.0 ppm, day 14
  Cell density of M. aeruginosa cultures: <1E+04 cells/mL
  In vivo chlorophyll a concentrations of M. aeruginosa cultures: 0.01 µg/L
[1]; [4]
  effectiveness as an algaecide on Microcystis aeruginosa: effective
[2]; BADA 0.2 ppm, day 0 (initial)
  Extracted chlorphylll a concentrations of C. kosterae cultures: 14.21 μg/sample
[2]; BADA 0.2 ppm, day 14
  Extracted chlorphylll a concentrations of C. kosterae cultures: 11.01 μg/sample
[2]; BADA 0.4 ppm, day 0 (initial)
  Extracted chlorphylll a concentrations of C. kosterae cultures: 14.21 μg/sample
[2]; BADA 0.4 ppm, day 14
  Extracted chlorphylll a concentrations of C. kosterae cultures: 13.15 μg/sample
[2]; BADA 0.8 ppm, day 0 (initial)
  Extracted chlorphylll a concentrations of C. kosterae cultures: 14.21 μg/sample
[2]; BADA 0.8 ppm, day 14
  Extracted chlorphylll a concentrations of C. kosterae cultures: 12.54 μg/sample
[2]; BADA 1.0 ppm, day 0 (initial)
  Extracted chlorphylll a concentrations of C. kosterae cultures: 14.21 μg/sample
[2]; BADA 1.0 ppm, day 14
  Extracted chlorphylll a concentrations of C. kosterae cultures: 13.26 μg/sample
[2]; BADA 1.2 ppm, day 0 (initial)
  Extracted chlorphylll a concentrations of C. kosterae cultures: 14.21 μg/sample
[2]; BADA 1.2 ppm, day 14
  Extracted chlorphylll a concentrations of C. kosterae cultures: 11.15 μg/sample
[2]; BADA 1.4 ppm, day 0 (initial)
  Extracted chlorphylll a concentrations of C. kosterae cultures: 14.21 μg/sample
[2]; BADA 1.4 ppm, day 14
  Extracted chlorphylll a concentrations of C. kosterae cultures: 8.63 μg/sample
[2]; BADA 1.8 ppm, day 0 (initial)
  Extracted chlorphylll a concentrations of C. kosterae cultures: 14.21 μg/sample
[2]; BADA 1.8 ppm, day 14
  Extracted chlorphylll a concentrations of C. kosterae cultures: 8.70 μg/sample
[2]; BADA 2.0 ppm, day 0 (initial)
  Extracted chlorphylll a concentrations of C. kosterae cultures: 14.21 μg/sample
[2]; BADA 2.0 ppm, day 14
  Extracted chlorphylll a concentrations of C. kosterae cultures: 8.32 μg/sample
[2]; [4]
  effectiveness as an algaecide on Cladophora sp.: effective
[3]; BADA 25 ppb, day 0 (initial)
  Cell density of M. aeruginosa cultures: 3.8E+05 cells/mL
  In vivo chlorophyll a concentrations of M. aeruginosa cultures: 1.20 µg/L
[3]; BADA 25 ppb, day 1
  In vivo chlorophyll a concentrations of M. aeruginosa cultures: 0.67 µg/L
[3]; BADA 25 ppb, day 5
  In vivo chlorophyll a concentrations of M. aeruginosa cultures: 0.64 µg/L
[3]; BADA 25 ppb, day 7
  In vivo chlorophyll a concentrations of M. aeruginosa cultures: 1.58 µg/L
[3]; BADA 25 ppb, day 12
  In vivo chlorophyll a concentrations of M. aeruginosa cultures: 7.91 µg/L
[3]; BADA 25 ppb, day 14
  Cell density of M. aeruginosa cultures: 7.3E+06 cells/mL
  In vivo chlorophyll a concentrations of M. aeruginosa cultures: 10.06 µg/L
[3]; BADA 50 ppb, day 0 (initial)
  Cell density of M. aeruginosa cultures: 3.8E+05 cells/mL
  In vivo chlorophyll a concentrations of M. aeruginosa cultures: 1.20 µg/L
[3]; BADA 50 ppb, day 1
  In vivo chlorophyll a concentrations of M. aeruginosa cultures: 0.48 µg/L
[3]; BADA 50 ppb, day 5
  In vivo chlorophyll a concentrations of M. aeruginosa cultures: 0.04 µg/L
[3]; BADA 50 ppb, day 7
  In vivo chlorophyll a concentrations of M. aeruginosa cultures: 0.06 µg/L
[3]; BADA 50 ppb, day 12
  In vivo chlorophyll a concentrations of M. aeruginosa cultures: 0.71 µg/L
[3]; BADA 50 ppb, day 14
  Cell density of M. aeruginosa cultures: 1.5E+06 cells/mL
  In vivo chlorophyll a concentrations of M. aeruginosa cultures: 1.93 µg/L
[3]; BADA 75 ppb, day 0 (initial)
  Cell density of M. aeruginosa cultures: 3.8E+05 cells/mL
  In vivo chlorophyll a concentrations of M. aeruginosa cultures: 1.20 µg/L
[3]; BADA 75 ppb, day 1
  In vivo chlorophyll a concentrations of M. aeruginosa cultures: 0.50 µg/L
[3]; BADA 75 ppb, day 5
  In vivo chlorophyll a concentrations of M. aeruginosa cultures: 0.05 µg/L
[3]; BADA 75 ppb, day 7
  In vivo chlorophyll a concentrations of M. aeruginosa cultures: 0.05 µg/L
[3]; BADA 75 ppb, day 12
  In vivo chlorophyll a concentrations of M. aeruginosa cultures: 0.60 µg/L
[3]; BADA 75 ppb, day 14
  Cell density of M. aeruginosa cultures: 1.4E+06 cells/mL
  In vivo chlorophyll a concentrations of M. aeruginosa cultures: 1.77 µg/L
[3]; BADA 100 ppb, day 0 (initial)
  Cell density of M. aeruginosa cultures: 3.8E+05 cells/mL
  In vivo chlorophyll a concentrations of M. aeruginosa cultures: 1.20 µg/L
[3]; BADA 100 ppb, day 1
  In vivo chlorophyll a concentrations of M. aeruginosa cultures: 0.55 µg/L
[3]; BADA 100 ppb, day 5
  In vivo chlorophyll a concentrations of M. aeruginosa cultures: 0.03 µg/L
[3]; BADA 100 ppb, day 7
  In vivo chlorophyll a concentrations of M. aeruginosa cultures: 0.03 µg/L
[3]; BADA 100 ppb, day 12
  In vivo chlorophyll a concentrations of M. aeruginosa cultures: 0.31 µg/L
[3]; BADA 100 ppb, day 14
  Cell density of M. aeruginosa cultures: 8.7E+05 cells/mL
  In vivo chlorophyll a concentrations of M. aeruginosa cultures: 0.98 µg/L
[3]; BADA 200 ppb, day 0 (initial)
  Cell density of M. aeruginosa cultures: 3.8E+05 cells/mL
  In vivo chlorophyll a concentrations of M. aeruginosa cultures: 1.20 µg/L
[3]; BADA 200 ppb, day 1
  In vivo chlorophyll a concentrations of M. aeruginosa cultures: 0.50 µg/L
[3]; BADA 200 ppb, day 5
  In vivo chlorophyll a concentrations of M. aeruginosa cultures: 0.03 µg/L
[3]; BADA 200 ppb, day 7
  In vivo chlorophyll a concentrations of M. aeruginosa cultures: 0.02 µg/L
[3]; BADA 200 ppb, day 12
  In vivo chlorophyll a concentrations of M. aeruginosa cultures: 0.05 µg/L
[3]; BADA 200 ppb, day 14
  Cell density of M. aeruginosa cultures: 1.4E+05 cells/mL
  In vivo chlorophyll a concentrations of M. aeruginosa cultures: 0.16 µg/L
